The record followed here is patent US10485766B2, “Drug delivery system and method for the treatment of neuro-degenerative disease” (Aphios Corporation, priority 2011, dated 2019).

Data set [1] deals with T1, protein kinase C (PKC) isoform alpha (Homo sapiens, UniProt P17252).
T1 construct: (measured by membrane translocation) in the SH-SY5Y neuroblastoma cell line; endogenous in cells; host or cells: SH-SY5Y neuroblastoma cell line
Nature of the data set: PKC alpha activation (membrane translocation) in SH-SY5Y cells. Particulars: as nanospheres; SH-SY5Y neuroblastoma cell line. In kind it is cell-based.

Data set [2] deals with alpha-secretase processing of amyloid precursor protein (APP). As to the kind of experiment: alpha-secretase processing of APP to s-APP alpha in SH-SY5Y neuroblastoma cell line. Type of data set: cell-based. The settings on record: as nanospheres. An excerpt:
(§1) These events are well-described cell and pharmacological events associated with prevention of beta-secretase mediated formation of beta-amyloid, the presumptive cause of dementia in human Alzheimer's disease and in the sweAPP/PS1 mouse model of Alzheimer's disease.

Data set [3] is described as follows: Concentrations of Bryostatin in different solvents (normal phase HPLC). In kind it is physicochemical. The settings on record: for Concentration: theoretical 2.5 mg/100 mL. The procedure:
Isopropyl alcohol, Extra Virgin olive oil, sesame oil, and vegetable oil were all used as solvents.
Thirty microliters of the stock solution were placed in each of 4 clean, dry HPLC vials. The ethanol was allowed to evaporate, leaving 25 micrograms in the vial. Then, 1.0 mL of the solvent was placed in the vial and vortexed to ensure proper mixing. These samples were then injected on a normal phase HPLC system, with a gradient of 10%-70% isopropyl alcohol in hexane as the mobile phase (specifically developed for this experiment).
The concentration of each vial theoretically should be 2.5 mg/100 mL.
The reason for the higher concentrations than the standard (isopropyl alcohol) is due to the baseline. While attempting a baseline subtraction for each oil, there was negative absorbance so the blank IPA sample was subtracted from each sample's baseline. While this incorporates a little more area for integration, the amount of Bryostatin in the oil was quantifiable.

Data set [4] has as its target T2, protein kinase C (PKC) isoform epsilon (Homo sapiens, UniProt Q02156).
T2 construct: (measured by membrane translocation) in the SH-SY5Y neuroblastoma cell line; endogenous in cells; host or cells: SH-SY5Y neuroblastoma cell line
T2 sequence (Q02156 1-737): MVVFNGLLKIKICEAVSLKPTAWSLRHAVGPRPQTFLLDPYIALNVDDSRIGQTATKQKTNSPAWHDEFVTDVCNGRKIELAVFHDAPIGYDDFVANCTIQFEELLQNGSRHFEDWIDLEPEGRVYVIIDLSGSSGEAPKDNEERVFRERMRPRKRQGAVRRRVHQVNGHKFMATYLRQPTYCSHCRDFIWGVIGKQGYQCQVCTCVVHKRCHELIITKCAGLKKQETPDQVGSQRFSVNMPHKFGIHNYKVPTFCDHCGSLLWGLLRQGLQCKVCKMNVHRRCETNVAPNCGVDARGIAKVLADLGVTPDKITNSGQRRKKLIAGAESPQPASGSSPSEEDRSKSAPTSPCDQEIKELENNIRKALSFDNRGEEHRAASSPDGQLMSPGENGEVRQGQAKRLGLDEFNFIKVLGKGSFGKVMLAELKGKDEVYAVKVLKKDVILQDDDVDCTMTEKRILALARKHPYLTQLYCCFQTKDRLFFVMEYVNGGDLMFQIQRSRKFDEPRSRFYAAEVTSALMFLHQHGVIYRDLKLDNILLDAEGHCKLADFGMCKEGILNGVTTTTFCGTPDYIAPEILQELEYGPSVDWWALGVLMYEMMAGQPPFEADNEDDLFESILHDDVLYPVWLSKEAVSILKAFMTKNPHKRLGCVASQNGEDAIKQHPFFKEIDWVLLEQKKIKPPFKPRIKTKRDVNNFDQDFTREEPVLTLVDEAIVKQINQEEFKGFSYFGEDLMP
As to the kind of experiment: PKC epsilon activation (membrane translocation) in SH-SY5Y cells. Type of data set: cell-based. Particulars: as nanospheres; SH-SY5Y neuroblastoma cell line.
Text: as §1

The subject of data set [5] is Mouse strain B6C3-Tg carrying mutant sweAPP and PS1 genes. As to the kind of experiment: Water maze studies. Type of data set: in vivo. Particulars: 5 micrograms/mouse on alternative days orally in oil formulation; sweAPP/PS1 mice, 5-6 months of age; versus control animals. An excerpt:
Mouse strain B6C3-Tg carrying mutant Swedish Amyloid precursor protein (sweAPP) and PS1 (presenilin-1) genes associated with early onset Alzheimer's disease were subjected to water maze tests at 5-6 months of age.

Turning to `CCC/C=C/C=C/C(=O)O[C@H]1/C(=C/C(=O)OC)C[C@H]2C[C@H]([C@@H](C)O)OC(=O)C[C@H](O)C[C@@H]3C[C@H](OC(C)=O)C(C)(C)[C@](O)(C[C@@H]4C/C(=C/C(=O)OC)C[C@H](/C=C/C(C)(C)[C@]1(O)O2)O4)O3` [Bryostatin-1], in data set [1], the “activation of PKC alpha (membrane translocation)” value is recorded as “activate”. The “alpha-secretase processing of APP to s-APP alpha” value in data set [2] is recorded as “induce alpha-secretase processing of amyloid precursor protein (APP) to s-APP alpha”. The Concentration is reported as 2.9945 mg/100 mL in data set [3] (Solvent Extra Virgin Olive Oil); 2.4431 mg/100 mL in data set [3] (Solvent Extra Virgin olive with mixed natural tocopherol antioxidants, lecithin and medium chain triglyceride emulsifiers); 2.6035 mg/100 mL in data set [3] (Solvent Isopropyl Alcohol (standard)); 2.5475 mg/100 mL in data set [3] (Solvent Vegetable Oil). The solubility in oils entry in data set [3] (different types of oil) is listed as “soluble”. In addition, in data set [4], the “activation of PKC epsilon (membrane translocation)” value is recorded as “activate”. Also, the “protection against memory loss in water maze” value in data set [5] was “significant protection”.
